From ChEMBL document CHEMBL1201862, “PubChem BioAssay data set” (2004)
Calls of active or inactive are those of the source.

Legend:
[1] = molecular target: G-protein coupled receptor 55 (Homo sapiens, UniProt Q9Y2T6); experiment: inhibition of LPI-stimulated GPR55 beta-arrestin translocation – imaging, U2OS, beta-arrestin-GFP, LPI agonist, primary screen (AID 2013); type: functional;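 also: antagonist potency measured as reduced agonist-driven arrestin aggregation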
[2] = molecular target: T1, E3 ubiquitin-protein ligase XIAP (Homo sapiens, UniProt P98170); experiment: Counter Screen using XIAP-Bir3 for Chemical Antagonists of Bir1/2 domains of IAP-family anti-apoptotic proteins. [Related pubchem assays (depositor defined):AID1018, AID1449, AID1514, AID1638, AID1749, AID1750, AID488957, AID488963]
T1 sequence (P98170 whole entry): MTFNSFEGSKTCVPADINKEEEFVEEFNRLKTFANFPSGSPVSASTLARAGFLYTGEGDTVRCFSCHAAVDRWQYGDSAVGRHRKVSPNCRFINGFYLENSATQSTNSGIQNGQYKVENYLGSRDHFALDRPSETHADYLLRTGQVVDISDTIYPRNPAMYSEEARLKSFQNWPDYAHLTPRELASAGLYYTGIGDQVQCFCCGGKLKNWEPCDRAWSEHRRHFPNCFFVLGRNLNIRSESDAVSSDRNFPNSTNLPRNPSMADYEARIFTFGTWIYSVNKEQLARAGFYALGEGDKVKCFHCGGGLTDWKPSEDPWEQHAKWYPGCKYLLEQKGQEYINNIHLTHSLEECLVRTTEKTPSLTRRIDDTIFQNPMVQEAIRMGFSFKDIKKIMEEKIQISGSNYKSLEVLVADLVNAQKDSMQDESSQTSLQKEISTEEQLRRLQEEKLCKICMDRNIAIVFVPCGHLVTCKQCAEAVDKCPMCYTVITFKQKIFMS

[3] = HIV-1 Vif–A3G interaction blockers – biochemical, TR-FRET, GST-Vif 1-94, biotin-A3G peptide, dose response retest, primary screen (AID 1117319); type: functional;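 also: TR-FRET signal of purified GST-Vif binding a biotinylated A3G peptide; inhibitors lower the FRET signal by blocking Vif and A3G binding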
[4] = molecular target: T1, E3 ubiquitin-protein ligase XIAP; experiment: small molecules displacing peptide from XIAP – biochemical, IAP family, fluorescence polarization (AID 1018); type: functional
[5] = Luminescence Cell-Based Dose Confirmation HTS to Identify Activators of 5'UTR Stem-Loop Driven Alpha-Synuclein mRNA Translation in H4 Neuroglioblastoma Cells. [Related pubchem assays: 1829 (Project Summary), 1814 (Primary HTS)]; type: functional
[6] = molecular target: T2, Polyadenylate-binding protein 1 (Homo sapiens, UniProt P11940); experiment: MLLE binding blockers, Cy5 peptide tracer – biochemical, fluorescence polarization, Cy5-PAM2 peptide, secondary, miRNA deadenylation inhibitor project, dose response (AID 602260); type: functional; settings: read-out: IC50_Mean
T2 sequence (P11940 whole entry): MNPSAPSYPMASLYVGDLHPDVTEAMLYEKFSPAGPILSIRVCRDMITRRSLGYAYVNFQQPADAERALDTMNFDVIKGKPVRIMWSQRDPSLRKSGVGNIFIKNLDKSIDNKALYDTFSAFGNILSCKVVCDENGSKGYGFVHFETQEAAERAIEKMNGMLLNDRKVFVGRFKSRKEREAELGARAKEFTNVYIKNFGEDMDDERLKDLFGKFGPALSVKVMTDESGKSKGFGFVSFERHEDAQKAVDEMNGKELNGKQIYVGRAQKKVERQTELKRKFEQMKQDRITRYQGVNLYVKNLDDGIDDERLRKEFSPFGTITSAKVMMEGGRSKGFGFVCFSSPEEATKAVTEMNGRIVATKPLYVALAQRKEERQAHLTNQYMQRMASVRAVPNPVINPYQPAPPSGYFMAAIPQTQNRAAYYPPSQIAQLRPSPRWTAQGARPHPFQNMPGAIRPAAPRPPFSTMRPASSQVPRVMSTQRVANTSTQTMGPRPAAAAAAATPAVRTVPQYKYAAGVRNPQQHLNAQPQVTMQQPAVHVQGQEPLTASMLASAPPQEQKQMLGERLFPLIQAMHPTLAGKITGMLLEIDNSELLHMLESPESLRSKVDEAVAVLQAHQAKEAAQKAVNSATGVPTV

Vero = experiment: viability of Vero cells under compound – cytotoxicity control for flavivirus capping enzyme inhibitors (AID 588742); type: functional; settings: Chlorocebus sabaeus
Protein RecA = molecular target: T3, Protein RecA (Mycobacterium tuberculosis, UniProt P9WHJ3); experiment: Fluorescence Cell-Free Homogeneous Dose Retest to Identify Inhibitors of RecA-Intein Splicing Activity. [Related pubchem assays (depositor defined):AID2097, AID2223, AID489010, AID492950]; type: functional
T3 sequence (P9WHJ3 whole entry): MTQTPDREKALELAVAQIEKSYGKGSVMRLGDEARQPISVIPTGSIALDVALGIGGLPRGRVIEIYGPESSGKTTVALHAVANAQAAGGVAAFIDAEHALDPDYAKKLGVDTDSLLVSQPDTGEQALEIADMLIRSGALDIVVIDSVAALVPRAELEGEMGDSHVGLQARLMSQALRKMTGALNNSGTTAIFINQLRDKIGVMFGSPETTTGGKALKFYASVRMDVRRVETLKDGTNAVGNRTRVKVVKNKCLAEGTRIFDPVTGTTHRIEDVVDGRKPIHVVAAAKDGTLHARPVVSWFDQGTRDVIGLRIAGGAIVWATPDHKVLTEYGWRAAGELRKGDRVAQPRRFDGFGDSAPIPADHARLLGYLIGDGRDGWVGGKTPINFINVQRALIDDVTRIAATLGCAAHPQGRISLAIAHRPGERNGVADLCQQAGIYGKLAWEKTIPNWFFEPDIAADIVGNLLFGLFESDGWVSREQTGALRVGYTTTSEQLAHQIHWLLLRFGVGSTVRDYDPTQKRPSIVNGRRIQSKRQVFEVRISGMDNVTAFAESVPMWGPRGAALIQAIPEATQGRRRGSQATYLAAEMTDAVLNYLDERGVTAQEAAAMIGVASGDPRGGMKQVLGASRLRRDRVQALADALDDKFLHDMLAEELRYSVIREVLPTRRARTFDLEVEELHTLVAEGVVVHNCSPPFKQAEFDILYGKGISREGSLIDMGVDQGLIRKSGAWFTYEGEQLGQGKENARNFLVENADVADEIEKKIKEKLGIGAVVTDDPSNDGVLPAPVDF

[7] = Luminescence Cell-Based Dose Response HTS to Identify Activators of Luciferase Translation or Activity in H4 […] Cells. [Related pubchem assays: 1829 (Project Summary), 1814 (Primary HTS)]; type: functional
[8] = microbe, parasite or virus in culture; type: functional; settings: Mycobacterium tuberculosis
[9] = HepG2 cell cytotoxicity, dose response, cytotoxicity control for non-replicating M. tuberculosis project (AID 489018); type: functional; settings: Mycobacterium tuberculosis
[10] = Vero E6 cell cytotoxicity, dose response, cytotoxicity control for non-replicating M. tuberculosis project, secondary assay (AID 492998); type: functional, VeroE6; settings: Vero C1008
cells = type: functional
[11] = THP-1 cell cytotoxicity, dose response, cytotoxicity control for non-replicating M. tuberculosis project (AID 489025); type: functional
[12] = molecular target: T2, Polyadenylate-binding protein 1; experiment: MLLE domain peptide-binding blockers, IC50 – biochemical, fluorescence polarization, FITC-PAM2 peptide, dose response (AID 602259); type: functional; settings: read-out: IC50_Mean
[13] = molecular target: T4, Replicative DNA helicase DnaB (Mycobacterium tuberculosis, UniProt P9WMR3); experiment: DnaB intein splicing inhibitors, dose response, biochemical, cell-free fluorescence (AID 449749); type: functional
T4 sequence (P9WMR3 whole entry): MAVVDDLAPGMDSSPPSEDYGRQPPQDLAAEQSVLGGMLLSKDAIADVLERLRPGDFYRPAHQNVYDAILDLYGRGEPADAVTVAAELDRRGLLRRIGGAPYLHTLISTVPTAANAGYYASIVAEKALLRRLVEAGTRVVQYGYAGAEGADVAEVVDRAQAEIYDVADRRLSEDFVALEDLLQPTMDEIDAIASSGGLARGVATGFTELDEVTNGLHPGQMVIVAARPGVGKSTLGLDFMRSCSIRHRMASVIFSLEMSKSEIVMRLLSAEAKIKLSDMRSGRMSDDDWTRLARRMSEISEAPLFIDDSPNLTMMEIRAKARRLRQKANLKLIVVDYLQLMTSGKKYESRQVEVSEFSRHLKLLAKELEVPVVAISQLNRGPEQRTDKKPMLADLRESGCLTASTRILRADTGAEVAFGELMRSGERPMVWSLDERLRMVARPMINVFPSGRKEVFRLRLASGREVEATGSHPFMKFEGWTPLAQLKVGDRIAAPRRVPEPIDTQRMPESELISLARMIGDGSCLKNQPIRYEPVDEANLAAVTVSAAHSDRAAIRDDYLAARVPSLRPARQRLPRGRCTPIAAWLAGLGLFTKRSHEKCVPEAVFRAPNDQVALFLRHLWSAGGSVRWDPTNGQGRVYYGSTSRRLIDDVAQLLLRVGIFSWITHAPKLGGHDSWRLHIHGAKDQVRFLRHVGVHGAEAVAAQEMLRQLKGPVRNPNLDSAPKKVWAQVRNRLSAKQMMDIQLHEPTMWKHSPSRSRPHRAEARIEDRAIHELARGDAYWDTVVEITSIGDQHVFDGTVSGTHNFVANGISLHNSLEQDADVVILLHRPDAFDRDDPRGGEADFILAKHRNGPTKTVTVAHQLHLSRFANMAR

H4 = experiment: Luminescence Cell-Based Dose Response HTS to Identify Activators of 5'UTR Stem-Loop Driven Prion Protein mRNA Translation in H4 Neuroglioblastoma Cells. [Related pubchem assays: 1829 (Project Summary), 1814 (Primary HTS)]; type: functional; settings: Homo sapiens
Genome polyprotein = Genome polyprotein (dengue virus type 2, UniProt P29990); experiment: flavivirus cap methylation enzyme inhibition – biochemical, confirmation dose response, primary screen (AID 588689); type: functional
Chain of Genome polyprotein (P29990 2492-3391 limits assumed): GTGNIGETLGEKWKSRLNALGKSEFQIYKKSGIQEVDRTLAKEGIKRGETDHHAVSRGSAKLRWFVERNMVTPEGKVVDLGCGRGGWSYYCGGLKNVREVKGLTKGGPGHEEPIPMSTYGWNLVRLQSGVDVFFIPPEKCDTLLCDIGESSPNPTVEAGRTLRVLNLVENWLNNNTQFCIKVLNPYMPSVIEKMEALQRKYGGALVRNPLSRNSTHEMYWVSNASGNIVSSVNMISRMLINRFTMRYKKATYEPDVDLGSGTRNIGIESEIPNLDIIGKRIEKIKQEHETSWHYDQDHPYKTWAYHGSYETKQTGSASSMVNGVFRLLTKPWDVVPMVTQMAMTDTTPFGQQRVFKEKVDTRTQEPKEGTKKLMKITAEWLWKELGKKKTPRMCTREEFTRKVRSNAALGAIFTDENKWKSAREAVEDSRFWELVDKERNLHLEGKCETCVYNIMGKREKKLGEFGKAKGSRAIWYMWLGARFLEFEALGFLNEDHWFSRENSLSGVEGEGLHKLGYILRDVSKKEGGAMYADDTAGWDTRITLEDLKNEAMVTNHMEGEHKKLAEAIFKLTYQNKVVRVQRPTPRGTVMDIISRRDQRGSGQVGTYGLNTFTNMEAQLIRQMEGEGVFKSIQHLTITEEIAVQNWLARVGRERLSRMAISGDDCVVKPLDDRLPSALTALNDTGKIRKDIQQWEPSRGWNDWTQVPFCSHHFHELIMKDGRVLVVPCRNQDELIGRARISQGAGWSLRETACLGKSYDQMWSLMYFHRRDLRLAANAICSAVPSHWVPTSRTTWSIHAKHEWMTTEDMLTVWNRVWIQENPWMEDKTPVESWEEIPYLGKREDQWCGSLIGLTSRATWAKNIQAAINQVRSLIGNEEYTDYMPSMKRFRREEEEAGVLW

Bcl-2-related protein A1 = molecular target: T5, Bcl-2-related protein A1 (Mus musculus, UniProt Q07440); type: functional;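 also: confirmatory dose–response counterscreen on Bfl-1, used to check hits from a UBC13 polyubiquitin inhibitor campaign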
T5 sequence (Q07440 whole entry): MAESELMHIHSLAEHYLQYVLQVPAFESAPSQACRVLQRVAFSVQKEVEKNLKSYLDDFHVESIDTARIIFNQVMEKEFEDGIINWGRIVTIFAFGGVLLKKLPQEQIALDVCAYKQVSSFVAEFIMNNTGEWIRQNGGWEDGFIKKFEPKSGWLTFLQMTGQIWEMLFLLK

[14] = molecular target: T6, Ubiquitin-conjugating enzyme E2 N (Homo sapiens, UniProt P61088); type: functional
T6 sequence (P61088 whole entry): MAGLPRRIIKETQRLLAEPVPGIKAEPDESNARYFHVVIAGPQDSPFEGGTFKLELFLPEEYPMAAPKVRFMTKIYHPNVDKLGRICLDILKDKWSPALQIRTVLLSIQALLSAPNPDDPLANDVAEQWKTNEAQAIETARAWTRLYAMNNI

[15] = molecular target: T6, Ubiquitin-conjugating enzyme E2 N; type: functional; remark: listed apart in the source
[16] = molecular target: T7, Mannose-6-phosphate isomerase (Homo sapiens, UniProt P34949); experiment: phosphomannose isomerase inhibition – biochemical, fluorescence intensity, confirmation (AID 1535)
T7 sequence (P34949 whole entry): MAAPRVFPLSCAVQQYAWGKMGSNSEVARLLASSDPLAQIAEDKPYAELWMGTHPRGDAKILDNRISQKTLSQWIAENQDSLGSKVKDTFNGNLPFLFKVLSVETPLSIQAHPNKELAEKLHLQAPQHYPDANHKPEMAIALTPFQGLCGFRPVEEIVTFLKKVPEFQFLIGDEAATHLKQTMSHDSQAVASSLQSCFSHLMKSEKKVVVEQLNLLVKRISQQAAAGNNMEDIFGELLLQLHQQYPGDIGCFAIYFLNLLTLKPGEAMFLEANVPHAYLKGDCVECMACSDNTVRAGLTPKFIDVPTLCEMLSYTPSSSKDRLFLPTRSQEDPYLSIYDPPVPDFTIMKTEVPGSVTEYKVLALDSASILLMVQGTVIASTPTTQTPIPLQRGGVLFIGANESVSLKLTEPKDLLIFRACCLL

Phosphomannomutase 2 = Phosphomannomutase 2 (Homo sapiens, UniProt O15305); experiment: Counter screen SAR assay for PMM2 inhibitors via a fluorescence intensity assay. [Related pubchem assays (depositor defined):AID1545, AID1574]
Chain of Phosphomannomutase 2 (O15305 whole entry): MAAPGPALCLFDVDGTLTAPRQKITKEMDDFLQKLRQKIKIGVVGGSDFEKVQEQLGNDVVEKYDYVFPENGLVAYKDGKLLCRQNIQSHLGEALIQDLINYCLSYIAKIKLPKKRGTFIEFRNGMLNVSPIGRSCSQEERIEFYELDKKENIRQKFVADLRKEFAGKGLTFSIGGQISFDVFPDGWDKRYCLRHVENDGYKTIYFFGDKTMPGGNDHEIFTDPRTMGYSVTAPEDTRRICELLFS

[17] = system: Streptococcus sp. 'group A'; experiment: Streptococcus pyogenes SK(-)GAS viability under kanamycin – luminescence, BacTiterGlo, confirmation, counter-screen for streptokinase expression inhibitor project, dose response (AID 1900); type: functional, organism-based
Streptococcus = experiment: GAS UMAA2166 growth inhibition – luminescence, BacTiterGlo, counter-screen for streptokinase expression inhibitor project, dose response (AID 1915); type: functional, organism-based;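 also: potency for reduction of bacterial viability or growth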
Streptokinase A = molecular target: T8, Streptokinase A (Streptococcus pyogenes serotype M1, UniProt P10520); experiment: viability-normalized secreted streptokinase activity reduction – plasminogen activation absorbance, OD405, dose response (AID 1914); type: functional, Streptococcus pyogenes M1 GAS;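 also: secreted streptokinase activity via plasminogen activation per viability signal from cell pellet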
T8 sequence (P10520 whole entry): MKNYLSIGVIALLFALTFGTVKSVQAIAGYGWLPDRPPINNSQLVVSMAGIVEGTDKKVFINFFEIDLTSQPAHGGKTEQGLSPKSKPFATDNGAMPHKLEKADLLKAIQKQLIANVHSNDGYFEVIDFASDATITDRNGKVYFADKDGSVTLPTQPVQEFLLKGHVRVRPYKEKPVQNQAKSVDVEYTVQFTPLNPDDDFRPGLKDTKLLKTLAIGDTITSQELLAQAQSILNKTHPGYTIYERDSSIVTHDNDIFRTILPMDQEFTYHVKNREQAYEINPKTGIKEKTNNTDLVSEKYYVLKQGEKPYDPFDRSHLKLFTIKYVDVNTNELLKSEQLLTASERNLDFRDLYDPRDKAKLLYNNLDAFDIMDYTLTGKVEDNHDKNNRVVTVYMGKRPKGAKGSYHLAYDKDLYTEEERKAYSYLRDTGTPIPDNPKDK

Chain of G-protein coupled receptor 55 (Q9Y2T6 whole entry): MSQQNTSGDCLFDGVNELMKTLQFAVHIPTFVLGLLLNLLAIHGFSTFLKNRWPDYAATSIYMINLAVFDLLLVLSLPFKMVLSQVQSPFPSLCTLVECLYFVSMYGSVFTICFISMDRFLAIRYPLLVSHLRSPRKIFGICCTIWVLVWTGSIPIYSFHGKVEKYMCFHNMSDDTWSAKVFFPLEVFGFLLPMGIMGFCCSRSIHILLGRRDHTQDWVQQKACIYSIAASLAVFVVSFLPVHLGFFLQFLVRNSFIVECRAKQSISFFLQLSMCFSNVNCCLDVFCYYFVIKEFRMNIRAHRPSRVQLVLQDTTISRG

Structure (SMILES): O=C1/C(=C/c2ccncc2)SC(=S)N1C1CCS(=O)(=O)C1 (stereo not drawn)
- IC50 [1]: 5.49 µM (active)

Structure (SMILES): O=C(O)CN1C(=O)COc2cc(S(=O)(=O)N3CCCC3)ccc21
- IC50 [2]: > 100 µM (inactive)
- IC50 [3]: > 100 µM (active)
- IC50 [4]: > 100 µM (not active)

Structure (SMILES): O=[N+]([O-])c1cc([N+](=O)[O-])c2cc3ccccc3nc2c1
- EC50 [5]: > 120 µM (not active)
- IC50 [6]: > 66 µM (inactive)
- CC50 (Vero): 10.1 µM (active)
- EC50 (Protein RecA): 1.17 µM (active)
- EC50 [7]: > 120 µM (not active)
- CC50 [8]: 18.9 µM (active)
- CC50 [9]: 14 µM (active)
- CC50 [10]: 12.7 µM (active)
- IC50 (cells): 0.39 µM (active)
- CC50 [11]: 5.67 µM (active)
- IC50 [12]: > 66 µM (inactive)
- AC50 [13]: > 380 µM (inconclusive)
- EC50 (H4): 32 µM (active)
- IC50 (Genome polyprotein): 6.37 µM (active)

Structure (SMILES): COc1ccc(/C=C/C(=O)Nc2c(C)nn(C)c2C)cc1COc1ccc(Cl)cc1Br
- IC50 (Bcl-2-related protein A1): 3.32 µM (active)
- IC50 [14]: 17.4 µM (active)
- IC50 [15]: 15.6 µM (active)

Structure (SMILES): COCCNP(=O)(c1ccccc1)c1nc2ccccc2s1 (stereo not drawn)
- IC50 [16]: > 50 µM (inactive)
- IC50 (Phosphomannomutase 2): > 100 µM (inactive)

Structure (SMILES): COc1ccc(CCNC(=O)CSc2nncn2N)cc1OC
- IC50 [2]: > 100 µM (inactive)
- EC50 [17]: > 150 µM (not active)
- EC50 (Streptococcus): > 150 µM (not active)
- IC50 [4]: > 100 µM (not active)
- EC50 (Streptokinase A): > 150 µM (not active)
